Drawing on patent US8916573B2, “Quinazoline-2,4-dione derivatives” (Actelion Pharmaceuticals Ltd., priority 2011, dated 2014), this text covers MIC for 21 compounds.

≈ marks a conversion by molar mass, not a printed value.

The subject of the experiment is S. aureus 29213. Nature of the experiment: Bacterial growth minimal inhibitory concentrations (microdilution, cation-adjusted Mueller-Hinton Broth, CLSI M7-A7). The class given is cell-based. As to conditions: Staphylococcus aureus, 29213; microdilution in cation-adjusted Mueller-Hinton Broth. As to the method: Bacterial Growth Minimal Inhibitory Concentrations: Minimal inhibitory concentrations (MICs; mg/l) were determined in cation-adjusted MuellerHinton Broth by a microdilution method following the description given in “Methods for Dilution Antimicrobial Susceptibility Tests for Bacteria that Grow Aerobically”, Approved standard, 7th ed., Clinical and Laboratory Standards Institute (CLSI) Document M7-A7, Wayne, Pa., USA, 2006. Typical antibacterial test results are given in Table 1 hereafter (MIC in mg/l).
On the technique in general: In broth dilution the organism is exposed to a series of concentrations in liquid medium.
The term MIC denotes the lowest concentration found to suppress growth. As to `Cn1c(=O)n(CCNC[C@@H]2CN(c3ccc4c(c3)NC(=O)CS4)C(=O)O2)c(=O)c2ccccc21` [Example 56, 1-methyl-3-(2-{[(R)-2-oxo-3-(3-oxo-3,4-dihydro-2H-benzo[1,4]thiazin-6-yl)-oxazolidin-5-ylmethyl]-amino}-ethyl)-1H-quinazoline-2,4-dione], the lowest concentration to inhibit growth (MIC) was 0.125 µg/mL (≈ 0.26 µM).

With `COc1ccc2c(=O)n(CCC[C@H]3CN(c4ccc5c(c4)NC(=O)CS5)C(=O)O3)c(=O)[nH]c2c1` [Example 35, 7-methoxy-3-{3-[(S)-2-oxo-3-(3-oxo-3,4-dihydro-2H-benzo[1,4]-thiazin-6-yl)-oxazolidin-5-yl]-propyl}-1H-quinazoline-2,4-dione], it took 0.125 µg/mL (≈ 0.259 µM) to inhibit growth (MIC). For `O=C1CSc2ccc(N3C[C@H](CCCn4c(=O)[nH]c5ccccc5c4=O)OC3=O)cc2N1` [Example 1, 3-{3-[(S)-2-oxo-3-(3-oxo-3,4-dihydro-2H-benzo[1,4]thiazin-6-yl)-oxazolidin-5-yl]-propyl}-1H-quinazoline-2,4-dione], the minimal inhibitory concentration (MIC) is not above 0.016 µg/mL. `O=C1COc2ccc(N3C[C@@H](CCCn4c(=O)[nH]c5c(Cl)cccc5c4=O)OC3=O)nc2N1` [Example 23, 8-chloro-3-{3-[(R)-2-oxo-3-(3-oxo-3,4-dihydro-2H-pyrido[3,2-b][1,4]oxazin-6-yl)-oxazolidin-5-yl]-propyl}-1H-quinazoline-2,4-dione]: the MIC came to 0.031 µg/mL (≈ 0.0657 µM). For the compound `Cn1c(=O)n(CCC[C@H]2CN(c3ccc4c(n3)NC(=O)CS4)C(=O)O2)c(=O)c2ccccc21` [Example 2, 1-methyl-3-{3-[(S)-2-oxo-3-(3-oxo-3,4-dihydro-2H-pyrido[3,2-b][1,4]thiazin-6-yl)-oxazolidin-5-yl]-propyl}-1H-quinazoline-2,4-dione], the MIC was not above 0.016 µg/mL. `Cc1cccc2[nH]c(=O)n(CCNC[C@@H]3CN(c4ccc5c(c4)NC(=O)CS5)C(=O)O3)c(=O)c12` [Example 59, 5-methyl-3-(2-{[(R)-2-oxo-3-(3-oxo-3,4-dihydro-2H-benzo[1,4]thiazin-6-yl)-oxazolidin-5-ylmethyl]-amino}-ethyl)-1H-quinazoline-2,4-dione]: the MIC is 0.25 µg/mL (≈ 0.519 µM). Next, `CCCn1c(=O)n(CCC[C@@H]2CN(c3ccc4c(c3)NC(=O)CS4)C(=O)O2)c(=O)c2ccccc21` [Example 4, 3-{3-[(R)-2-oxo-3-(3-oxo-3,4-dihydro-2H-benzo[1,4]-thiazin-6-yl)-oxazolidin-5-yl]-propyl}-1-propyl-1H-quinazoline-2,4-dione]: not above 0.25 µg/mL; `Cc1cccc2c1c(=O)n(CCNC[C@@H]1CN(c3ccc4c(c3)NC(=O)CS4)C(=O)O1)c(=O)n2C` [Example 57, 1,5-dimethyl-3-(2-{[(R)-2-oxo-3-(3-oxo-3,4-dihydro-2H-benzo[1,4]thiazin-6-yl)-oxazolidin-5-ylmethyl]-amino}-ethyl)-1H-quinazoline-2,4-dione]: not above 0.016 µg/mL. `O=C1CSc2ccc(N3C[C@H](CCCn4c(=O)[nH]c5cccc(Cl)c5c4=O)OC3=O)nc2N1` [Example 19, 5-chloro-3-{3-[(S)-2-oxo-3-(3-oxo-3,4-dihydro-2H-pyrido[3,2-b][1,4]thiazin-6-yl)-oxazolidin-5-yl]-propyl}-1H-quinazoline-2,4-dione] came in with an MIC not above 0.016 µg/mL. With `Cc1cccc2c(=O)n(CCNC[C@@H]3CN(c4ccc5c(c4)NC(=O)CS5)C(=O)O3)c(=O)[nH]c12` [Example 60, 8-methyl-3-(2-{[(R)-2-oxo-3-(3-oxo-3,4-dihydro-2H-benzo[1,4]thiazin-6-yl)-oxazolidin-5-ylmethyl]-amino}-ethyl)-1H-quinazoline-2,4-dione], 0.25 µg/mL (≈ 0.519 µM) was the least that counted as inhibitory (MIC). `O=C1COc2ccc(N3C[C@@H](CCCn4c(=O)[nH]c5cccc(Cl)c5c4=O)OC3=O)nc2N1` [Example 20, 5-chloro-3-{3-[(R)-2-oxo-3-(3-oxo-3,4-dihydro-2H-pyrido[3,2-b][1,4]oxazin-6-yl)-oxazolidin-5-yl]-propyl}-1H-quinazoline-2,4-dione]: 0.125 µg/mL (≈ 0.265 µM) was the least that counted as inhibitory (MIC). In turn, `Cn1c(=O)n(CCC[C@@H]2CN(c3ccc4c(c3)NC(=O)CS4)C(=O)O2)c(=O)c2ccc(Br)cc21` [Example 46, 7-bromo-1-methyl-3-{3-[(R)-2-oxo-3-(3-oxo-3,4-dihydro-2H-benzo[1,4]thiazin-6-yl)-oxazolidin-5-yl]-propyl}-1H-quinazoline-2,4-dione] came in with an MIC not above 0.016 µg/mL.

The compound `Cn1c(=O)n(CCCC[C@@H]2CN(c3ccc4c(n3)NC(=O)CS4)C(=O)O2)c(=O)c2ccccc21` [Example 51, 1-methyl-3-{4-[(R)-2-oxo-3-(3-oxo-3,4-dihydro-2H-pyrido[3,2-b][1,4]thiazin-6-yl)-oxazolidin-5-yl]-butyl}-1H-quinazoline-2,4-dione] returned a minimum inhibitory concentration (MIC) not above 0.016 µg/mL. `O=C1CSc2ccc(N3C[C@H](CCCn4c(=O)[nH]c5cc6ccccc6cc5c4=O)OC3=O)cc2N1` [Example 42, 3-{3-[(S)-2-oxo-3-(3-oxo-3,4-dihydro-2H-benzo[1,4]-thiazin-6-yl)-oxazolidin-5-yl]-propyl}-1H-benzo[g]quinazoline-2,4-dione] gave an MIC of 0.031 µg/mL (≈ 0.0617 µM). Next, `COc1ccc2[nH]c(=O)n(CCC[C@@H]3CN(c4ccc5c(c4)NC(=O)CS5)C(=O)O3)c(=O)c2c1` [Example 34, 6-methoxy-3-{3-[(R)-2-oxo-3-(3-oxo-3,4-dihydro-2H-benzo[1,4]-thiazin-6-yl)-oxazolidin-5-yl]-propyl}-1H-quinazoline-2,4-dione]: 0.063 µg/mL (≈ 0.131 µM); `Cn1c(=O)n(CCNC[C@@H]2CN(c3ccc4c(n3)NC(=O)CS4)C(=O)O2)c(=O)c2ccccc21.O=CO` [Example 55, 1-methyl-3-(2-{[(R)-2-oxo-3-(3-oxo-3,4-dihydro-2H-pyrido[3,2-b][1,4]thiazin-6-yl)-oxazolidin-5-ylmethyl]-amino}-ethyl)-1H-quinazoline-2,4-dione formate salt]: 0.031 µg/mL. For `O=C1CSc2ccc(N3C[C@@H](CCCn4c(=O)[nH]c5c(Cl)cccc5c4=O)OC3=O)cc2N1` [Example 21, 8-chloro-3-{3-[(R)-2-oxo-3-(3-oxo-3,4-dihydro-2H-benzo[1,4]thiazin-6-yl)-oxazolidin-5-yl]-propyl}-1H-quinazoline-2,4-dione], the MIC was not above 0.016 µg/mL. Take `O=C1CSc2ccc(N3C[C@@H](CCCn4c(=O)[nH]c5c(F)cccc5c4=O)OC3=O)cc2N1` [Example 32, 8-fluoro-3-{3-[(R)-2-oxo-3-(3-oxo-3,4-dihydro-2H-benzo[1,4]thiazin-6-yl)-oxazolidin-5-yl]-propyl}-1H-quinazoline-2,4-dione]: 0.031 µg/mL (≈ 0.0659 µM) was the least that counted as inhibitory (MIC). Next, `Cc1ccc2[nH]c(=O)n(CCC[C@@H]3CN(c4ccc5c(c4)NC(=O)CS5)C(=O)O3)c(=O)c2c1` [Example 10, 6-methyl-3-{3-[(R)-2-oxo-3-(3-oxo-3,4-dihydro-2H-benzo[1,4]thiazin-6-yl)-oxazolidin-5-yl]-propyl}-1H-quinazoline-2,4-dione]: 0.063 µg/mL (≈ 0.135 µM); `O=C1COc2ccc(N3C[C@H](CCCn4c(=O)[nH]c5c(Cl)cccc5c4=O)OC3=O)nc2N1` [Example 24, 8-chloro-3-{3-[(S)-2-oxo-3-(3-oxo-3,4-dihydro-2H-pyrido[3,2-b][1,4]oxazin-6-yl)-oxazolidin-5-yl]-propyl}-1H-quinazoline-2,4-dione]: not above 0.016 µg/mL; `O=C1CSc2ccc(N3C[C@@H](CCCn4c(=O)[nH]c5cccc(F)c5c4=O)OC3=O)cc2N1` [Example 17, 5-fluoro-3-{3-[(R)-2-oxo-3-(3-oxo-3,4-dihydro-2H-benzo[1,4]thiazin-6-yl)-oxazolidin-5-yl]-propyl}-1H-quinazoline-2,4-dione]: 0.125 µg/mL (≈ 0.266 µM).
